Experimental data taken from the OligoGym collection.
Oligonucleotides are written 5' to 3', each unit as a sugar letter and its base; * is a phosphorothioate linkage, no mark a phosphodiester; rarer units and linkages stand in square brackets, end groups in braces. Plain capitals give the bases only. d = 2'-deoxy (DNA); r = 2'-OH (RNA)

Target: UBE2B
Test: reporter assay of Huesken 2005
Conditions: siRNA
Note: test concentration or dose not given here.

| Substance | normalised inhibition (eCFP-eYFP dual reporter) [%] |
| --- | --- |
| sense rArArArArGrArGrUrUrUrCrGrGrCrCrArUrUrGdTdT / antisense rCrArArUrGrGrCrCrGrArArArCrUrCrUrUrUrUdCdT | 49.2 |
| sense rArArArCrUrArGrUrArArUrArGrArArUrUrUrUdTdT / antisense rArArArArUrUrCrUrArUrUrArCrUrArGrUrUrUdAdA | 47.5 |
| sense rArArCrArArCrArUrCrArUrGrCrArGrUrGrGrAdTdT / antisense rUrCrCrArCrUrGrCrArUrGrArUrGrUrUrGrUrUdTdT | 56.4 |
| sense rArArCrArUrCrArUrGrCrArGrUrGrGrArArUrGdTdT / antisense rCrArUrUrCrCrArCrUrGrCrArUrGrArUrGrUrUdGdT | 55 |
| sense rArArCrCrGrArArUrCrCrUrArArCrArGrUrCrCdTdT / antisense rGrGrArCrUrGrUrUrArGrGrArUrUrCrGrGrUrUdCdA | 49.9 |
| sense rArArUrArGrCrCrArGrGrCrArGrCrArCrArGrCdTdT / antisense rGrCrUrGrUrGrCrUrGrCrCrUrGrGrCrUrArUrUdGdG | 51 |
| sense rArArUrCrGrArUrGrGrArGrUrCrCrArArCrArUdTdT / antisense rArUrGrUrUrGrGrArCrUrCrCrArUrCrGrArUrUdCdT | 74.4 |
| sense rArArUrGrUrUrUrCrArUrCrCrArArArUrGrUrGdTdT / antisense rCrArCrArUrUrUrGrGrArUrGrArArArCrArUrUdTdT | 63.5 |
| sense rArArUrUrCrArGrUrCrUrCrUrGrCrUrGrGrArUdTdT / antisense rArUrCrCrArGrCrArGrArGrArCrUrGrArArUrUdGdA | 60.8 |
| sense rArCrArArGrArGrGrArCrCrCrArCrCrUrGrUrGdTdT / antisense rCrArCrArGrGrUrGrGrGrUrCrCrUrCrUrUrGrUdAdA | 61.1 |
| sense rArCrCrArUrCrUrGrArArArArCrArArCrArUrCdTdT / antisense rGrArUrGrUrUrGrUrUrUrUrCrArGrArUrGrGrUdGdC | 50.8 |
| sense rArCrCrUrGrUrGrGrGrUrGrUrCrArGrUrGrGrCdTdT / antisense rGrCrCrArCrUrGrArCrArCrCrCrArCrArGrGrUdGdG | 76.7 |
| sense rArCrGrArGrArArUrArUrGrArGrArArArArGrAdTdT / antisense rUrCrUrUrUrUrCrUrCrArUrArUrUrCrUrCrGrUdTdT | 84.2 |
| sense rArGrArArArArGrArGrUrUrUrCrGrGrCrCrArUdTdT / antisense rArUrGrGrCrCrGrArArArCrUrCrUrUrUrUrCrUdCdA | 77.8 |
| sense rArGrArArUrCrGrArUrGrGrArGrUrCrCrArArCdTdT / antisense rGrUrUrGrGrArCrUrCrCrArUrCrGrArUrUrCrUdGdA | 64.8 |
| sense rArGrCrCrArArUrArGrCrCrArGrGrCrArGrCrAdTdT / antisense rUrGrCrUrGrCrCrUrGrGrCrUrArUrUrGrGrCrUdGdG | 75.9 |
| sense rArGrCrCrArGrGrCrArGrCrArCrArGrCrUrUrUdTdT / antisense rArArArGrCrUrGrUrGrCrUrGrCrCrUrGrGrCrUdAdT | 71.4 |
| sense rArGrGrGrArCrArCrCrUrUrUrUrGrArArGrArUdTdT / antisense rArUrCrUrUrCrArArArArGrGrUrGrUrCrCrCrUdTdC | 78.1 |
| sense rArGrUrCrCrArArCrArUrArUrGrArUrGrUrArUdTdT / antisense rArUrArCrArUrCrArUrArUrGrUrUrGrGrArCrUdCdC | 83.6 |
| sense rArGrUrCrCrArGrCrCrArArUrArGrCrCrArGrGdTdT / antisense rCrCrUrGrGrCrUrArUrUrGrGrCrUrGrGrArCrUdGdT | 68.7 |
| sense rArGrUrCrUrCrUrGrCrUrGrGrArUrGrArArCrCdTdT / antisense rGrGrUrUrCrArUrCrCrArGrCrArGrArGrArCrUdGdA | 53.1 |
| sense rArGrUrUrArUrArUrUrUrGrGrArCrCrArGrArAdTdT / antisense rUrUrCrUrGrGrUrCrCrArArArUrArUrArArCrUdGdC | 79 |
| sense rArUrArGrCrCrArGrGrCrArGrCrArCrArGrCrUdTdT / antisense rArGrCrUrGrUrGrCrUrGrCrCrUrGrGrCrUrArUdTdG | 71.2 |
| sense rArUrArUrGrArGrArArArArGrArGrUrUrUrCrGdTdT / antisense rCrGrArArArCrUrCrUrUrUrUrCrUrCrArUrArUdTdC | 46.3 |
| sense rArUrCrCrArArArUrGrUrGrUrArUrGrCrUrGrAdTdT / antisense rUrCrArGrCrArUrArCrArCrArUrUrUrGrGrArUdGdA | 73 |
| sense rArUrCrCrUrUrCrArGrArArUrCrGrArUrGrGrAdTdT / antisense rUrCrCrArUrCrGrArUrUrCrUrGrArArGrGrArUdAdT | 77.2 |
